In patent US20020082452A1, “alpha-sulfin-and alpha-sulfonamino acid amides” (priority 1998, published 2002):

Tests used:
Plasmopara viticola = experiment: D-1: Action against Plasmopara viticola on vines (residual-protective and residual-curative action); assay type: in vivo; details: vine seedlings, spray mixture 0.02% active ingredient, evaluated after 6 days at 95-100% relative humidity and 20° C.
Procedure: D-1: Action against Plasmopara viticola on Vines a) Residual-Protective Action
Vine seedlings are sprayed at the 4- to 5-leaf stage with a spray mixture (0.02% active ingredient) prepared from a wettable powder formulation of the test compound. After 24 hours, the treated plants are infected with a sporangia suspension of the fungus. Fungus infestation is evaluated after incubation for 6 days at 95-100% relative humidity and 20° C. […]
b) Residual-Curative Action
Vine seedlings are infected at the 4- to 5-leaf stage with a sporangia suspension of the fungus. After incubation for 24 hours in a humidity chamber at 95-100% relative humidity and 20° C., the infected plants are dried and sprayed with a spray mixture (0.02% active ingredient) prepared from a wettable powder formulation of the test compound. After the spray coating has dried, the treated plants are placed in the humidity chamber again. Fungus infestation is evaluated 6 days after infection. […] Compounds A1.02, A1.03, A1.04, A1.03, A1.5, A1.06, A1.07, A1.09, A1.10, A1.13, A1.14, A1.15, A1.16, A1.21, A1.23.

Phytophthora [1] = experiment: D-2: Action against Phytophthora on tomato plants (residual-protective and systemic action); assay type: in vivo; details: spray mixture 0.02% active ingredient (sprayed or watered), evaluated after 4-5 days at 90-100% relative humidity and 20° C.
Procedure: D-2: Action Against Phytophthora on Tomato Plants
(§1) a) Residual-Protective Action
(§2) After a cultivation period of 3 weeks, tomato plants are sprayed with a spray mixture (0.02% active ingredient) prepared from a wettable powder formulation of the test compound. After 48 hours, the treated plants are infected with a sporangia suspension of the fungus. Fungus infestation is evaluated after incubation of the infected plants for 5 days at 90-100% relative humidity and 20° C.
as §2, with “watered” for “sprayed”, “ingredient based on the volume of the soil)” for “ingredient)”, “compound. […]” for “compound.”, “96” for “48”, “4” for “5”, “C. […] Compounds A1.02, A1.03, A1.04, A1.03, A1.05, A1.06, A1.07, A1.09, A1.10, A1.13, A1.14, A1.15, A1.16, A1.21, A1.23.” for “C.”

Phytophthora [2] = experiment: D-3: Action against Phytophthora on potato plants (residual-protective and systemic action); assay type: in vivo; details: potato plants (Bintje variety), spray mixture 0.02% active ingredient (sprayed or watered), evaluated after 4 days at 90-100% relative humidity and 20° C.
Procedure: D-3 Action Against Phytophthora on Potato Plants
as §1
(§3) 2-3 week old potato plants (Bintje variety) are sprayed with a spray mixture (0.02% active ingredient) prepared from a wettable powder formulation of the test compound. After 48 hours, the treated plants are infected with a sporangia suspension of the fungus. Fungus infestation is evaluated after incubation of the infected plants for 4 days at 90-100% relative humidity and 20° C.
as §3, with “watered” for “sprayed”, “ingredient based on the volume of the soil)” for “ingredient)”, “compound. […]” for “compound.”, “C. Fungal infestation is effectively controlled with compounds of Tables 1 to 37. Compounds A1.02, A1.03, A1.04, A1.03, A1.05, A1.06, A1.07, A1.09, A1.10, A1.13, A1.14, A1.15, A1.16, A1.21, A1.23.” for “C.”

SMILES: CCS(=O)(=O)N[C@H](C(=O)NCCc1ccc(OCCOc2ccc(F)cc2)c(OC)c1)C(C)C
- melting point: 124 to 125 °C

SMILES: COc1cc(CCNC(=O)[C@@H](NS(C)(=O)=O)C(C)C)ccc1OC/C=C/c1ccc(Br)cc1 [Compound A2.16]
- Fungus infestation (Plasmopara viticola): completely inhibit fungal infestation
- Fungus infestation (Phytophthora [1]): completely inhibit fungal infestation
- Fungus infestation (Phytophthora [2]): completely inhibit fungal infestation

SMILES: CCS(=O)(=O)N[C@H](C(=O)NCCc1ccc(OC/C=C\c2ccccc2)c(OC)c1)C(C)C [Compound A3.02]
- Fungus infestation (Plasmopara viticola): completely inhibit fungal infestation
- Fungus infestation (Phytophthora [1]): completely inhibit fungal infestation
- Fungus infestation (Phytophthora [2]): completely inhibit fungal infestation

SMILES: CCS(=O)(=O)N[C@H](C(=O)NCCc1ccc(OC/C=C\c2ccc(Cl)cc2)c(OC)c1)C(C)C [Compound A3.03, Z-(S)-N-(2-{4-[3-(4-Chloro-phenyl)-allyloxy]-3-methoxy-phenyl}-ethyl)-2-ethanesulfonylamino-3-methyl-butyramide]
- Fungus infestation (Plasmopara viticola): completely inhibit fungal infestation
- melting point: 141 to 143 °C
- Fungus infestation (Phytophthora [1]): completely inhibit fungal infestation
- Fungus infestation (Phytophthora [2]): completely inhibit fungal infestation
